Patent US7615380B2, “Methods for modulating an immune response by modulating KRC activity” (President and Fellows of Harvard College, priority 2001, dated 2009)

Experiments:
JNK = JNK in vitro kinase assay after transfection of 293 cells; assay type: cell-based, human; conditions: 293 cells cotransfected with TRAF2, 24 hours
Description: Inhibition of TRAF2 (A) and TNFα (B, C) mediated JNK/SAPK activation by ectopic expression of KRC. (A) 293 T cells were transfected with 400 ng of TRAF2 and 2 μg of the indicated expression vector. Twenty-four hours after the transfection, the cells were harvested and lysed, and the endogenous JNK was precipitated with 5 μg of GST-cJUN (1-79) for 4 hours. JNK activity was determined by using GST-cJUN (1-79) as a substrate. (B,C) 293 T cells were cotransfected with vectors encoding HA-tagged JNK2 (500ng) and the indicated expression vector (2 μg). Twenty-four hours after the transfection cells were stimulated for 10 min with 10 ng/ml of TNFα and cells harvested at varying time points. JNK activity was assayed with GST-cJUN (1-79) as substrate.
Anti-HA or anti-FLAG immunoprecipitates were used for immune complex kinase assays that were performed at 30° C. for 30 min with 1 μg of substrate, 10 μCi of γ^32 P ATP, and 10 μM ATP in 30 μl of kinase buffer (20 mM HEPES, pH 7.4, 10 mM MgCl2, 25 mM β-glycerophosphate, 50 μm NA3VO4, and 50 μm DTT). The substrate was GST-c-JUN.

TRAF2, TRAF5, TRAF6 = assay: Coimmunoprecipitation with TRAF family members in 293T cells; assay type: binding
Source text: FIGS. 1(A)-1(E) show the interaction of amino acid residues 204 to 1055 of KRC (“KRC tr”) (amino acids 204-1055 of SEQ ID NO:2) with TRAF family members. […] FIG. 1(B) upper panel depicts the interaction of KRC tr with TRAFs in mammalian cells. 293 T cells were cotransfected with the indicated FLAG-TRAFs and MYC-tagged KRC tr, and immunoprecipitated with anti-MYC antibody, followed by blotting with anti-FLAG antibody. FIG. 1(B) lower panel depicts the direct western blot of overexpressed TRAFS and KRC tr with anti-FLAG or anti-MYC. FIG. 1(C) depicts the differential interaction of KRC tr with TRAF proteins. The coimmunoprecipitation experiments were performed in the presence of 300 mM NaCl instead of 137 mM NaCl. FIG. 1(D) depicts KRC tr interacting with TRAF2 lacking the Ring finger domain. 293 T cells were transfected with MYC-KRC tr and with FLAG tagged TRAF2 or with FLAG-tagged TRAF2 (87-501). FIG. 1(E) depicts the interaction of KRC tr with endogenous TRAF2 but not with endogenous TRAF5 or TRAF6. 293T were transfected with an expression vector encoding an MYC-tagged KRC tr, or empty plasmid. Lysates from 293T cells were incubated with anti-MYC antibodies. Coimmunoprecipitated endogenous TRAF was detected by western blotting with specific anti-TRAF antibodies.
Effectene™ mediated transfections into 293T cells were performed. […]

c-Jun/c-Fos AP-1 = assay: c-Jun/c-Fos protein stability time course with cycloheximide; assay type: cell-based
Description: The above experiments mapped the interaction site of KRC with c-Jun to aa 204-1055 of KRC. The interaction of full-length KRC with c-Jun was tested. […] Time course experiments were performed in which overexpressed sense KRC or an antisense KRC previously shown to block production of endogenous KRC protein were coimmunoprecipitated with overexpressed c-Jun and c-Fos. […] The same set of experiments were performed using c-Fos, a very short-lived cellular protein. […] The ability of KRC to promote the degradation of other fos family members Fra1, Fra2 and Fos B was also tested (FIG. 23(D)). […] The protein stability of V-fos was not affected by altering levels of KRC by sense or antisense overexpression.

KRC: full-length KRC zinc finger protein (SEQ ID NO:2) overexpressed from an expression vector
TRAF2-dependent JNK activation (JNK): blocked JNK activation only partially
interaction with TRAF family members (TRAF2, TRAF5, TRAF6): higher affinity with TRAF2 than with TRAF5 and TRAF6
c-Jun degradation (c-Jun/c-Fos AP-1; low dose cycloheximide): rapid degradation of c-Jun
stability of the c-Fos protein (c-Jun/c-Fos AP-1; presence of cycloheximide): compromised
